pEC50, pIC50: −log10 of the molar value. In brackets after ≈: the same amount, converted by molar mass. Several values for one entry are separate records, joined by “and”; a condition that tells them apart may be missing. Equal values may be shown once.
How the values were obtained:
[1] = tested on: Panel NCI-60 (60 carcinoma cell lines); assay: Antiproliferative activity against human Panel NCI-60 (60 carcinoma cell lines) assessed as cell growth inhibition; format: functional
P388 = assay: Antiproliferative activity against mouse P388 cells assessed as cell growth inhibition; format: functional, cell-based
RPMI-7951 = assay: Antiproliferative activity against human RPMI-7951 cells assessed as cell growth inhibition; format: functional; settings: read-out: ED50 (the source's name)
A549 = assay: Antiproliferative activity against human A549 cells assessed as cell growth inhibition; format: functional; settings: read-out: ED50 (the source's name)
Pyricularia oryzae [2] = assay: Antifungal activity against Pyricularia oryzae assessed as inhibition of microbial growth; format: functional, organism-based
[3] = target: Procathepsin L (Homo sapiens) (UniProt P07711); assay: Inhibition of Cathepsin L (unknown origin) at 0.00001 M relative to control; settings: dose 10 µM
[4] = target: Cathepsin B (Homo sapiens) (UniProt P07858); assay: Inhibition of Cathepsin B (unknown origin) at 0.00001 M relative to control; settings: dose 10 µM
[5] = tested on: Trypanosoma brucei brucei; assay: […] activity against Trypanosoma brucei brucei GUTat 3.1 assessed as inhibition of parasite growth measured after 72 hrs by alamar blue assay; format: functional, organism-based
[6] = Toxicity in brine shrimp assessed as lethality; settings: artemia salina
Zymoseptoria tritici = assay: Antifungal activity against Zymoseptoria tritici assessed as inhibition of microbial growth by microtiter plate based analysis; format: functional, organism-based
Phytophthora infestans = assay: Antifungal activity against Phytophthora infestans assessed as inhibition of microbial growth by microtiter plate based analysis; format: functional, organism-based
Candida albicans [7] = assay: Antifungal activity against Candida albican ATCC10231 assessed as inhibition of fungal growth by measuring minimal inhibitory quantity by microdilution method; format: functional
Candida albicans [8] = assay: Antifungal activity against Candida albican ATCC10231 assessed as inhibition of fungal growth by microdilution method; format: functional
Candida albicans [9] = assay: Antifungal activity against Candida albicans assessed as inhibition of fungal growth by MTT method; format: functional
[10] = target: T1, Alpha glucosidase (Homo sapiens) (UniProt O43451+P10253+P14410+Q2M2H8); assay: Inhibition of alpha glucosidase (unknown origin) at 1 mM relative to control; format: protein assay
[11] = target: T1, Alpha glucosidase (Homo sapiens); assay: Inhibition of alpha glucosidase (unknown origin) at 0.4 mM relative to control; format: protein assay
Cladosporium cucumerinum = assay: Antifungal activity against Cladosporium cucumerinum assessed as inhibition of microbial growth by bioautographic TLC method; format: functional
RAW264.7 = assay: Inhibition of LPS-induced NO production in mouse RAW264.7 cells incubated for 24 hrs by Griess reagent based assay; format: functional, cell-based; settings: RAW264.7, 24 h
[12] = tested on: Trypanosoma brucei brucei; assay: Antitrypanosomal activity against bloodstream Trypanosoma brucei brucei assessed as parasite growth inhibition measured after 72 hrs by alamar blue assay; format: functional, organism-based
Pyricularia oryzae [13] = assay: Antifungal activity against Pyricularia oryzae assessed as inhibition of microbial growth by microtiter plate based analysis; format: functional, organism-based
[14] = Inhibition of superoxide anion radical release in rabbit polymorphonuclear leucocytes; format: functional, cell-based; settings: Oryctolagus cuniculus, Polymorphonuclear neutrophil
[15] = tested on: Peritoneal macrophage cell; assay: Inhibition of superoxide anion radical release in guinea pig peritoneal macrophages; format: functional, cell-based; settings: Cavia porcellus

Sequence of Procathepsin L (Homo sapiens) (P07711 114-333 limits assumed): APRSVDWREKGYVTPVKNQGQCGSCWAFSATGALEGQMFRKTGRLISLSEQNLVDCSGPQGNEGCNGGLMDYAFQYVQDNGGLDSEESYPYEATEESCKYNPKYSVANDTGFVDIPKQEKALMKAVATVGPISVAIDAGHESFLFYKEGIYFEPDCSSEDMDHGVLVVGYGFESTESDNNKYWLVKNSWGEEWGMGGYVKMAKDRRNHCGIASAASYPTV

C=C1C(=O)[C@]23O[C@@H]2[C@H]1CCC(=O)[C@]1(C)CCCC(C)(C)[C@H]1C[C@H]3O
GI50 [1]: 2500 nM
GI50 (P388): 0.27 µg/mL and 800 nM
IC50 (P388): 0.27 µg/mL (≈ 0.812 µM)

COc1cc(OC)c2c3c1-c1c(O)cccc1[C@@H]1Oc4ccccc4[C@@H](C[C@@H]2OC)[C@@H]31
EC50 (RPMI-7951): 1 µg/mL (≈ 2.4 µM)
EC50 (A549): 1 µg/mL (≈ 2.4 µM)

Cc1ccc2c(c1O)[C@@H](C(C)C)CC[C@H]2C
IC50 (Pyricularia oryzae [2]): 1.7 µg/mL

Oc1ccc2cc1Oc1ccc(cc1)CCc1cccc(c1)Oc1c(O)cccc1CC2
inhibition [3]: 95%
inhibition [4]: 93%

CC1=CCC[C@]2(C)CC[C@@H](C(C)(C)O)C[C@@H]12
pEC50 ([5]; GUTat 3.1, 72 h, read-out: EC50): 6.35

C=C1C(=O)C2=C[C@H]1C[C@H](O)C(=O)[C@]1(C)CCCC(C)(C)[C@H]1C[C@H]2O
GI50 [1]: 1500 nM

C=C1C(=O)O[C@@H]2[C@H]3C(C)=C[C@H]4OC(=O)C(=CC[C@@H]12)[C@@H]34
inhibition [3]: 13.4%
inhibition [4]: 24.7%

Oc1ccc(CCc2c(Cl)cc(Cl)c(O)c2Cl)cc1Cl
LC50 [6]: 0.42 ppm

CC1=CC[C@H]2C(C)(C)CCC[C@]2(C)[C@H]1C=O
IC50 (Zymoseptoria tritici): 17.6 µg/mL
IC50 (Phytophthora infestans): < 0.03 µg/mL

Oc1ccc2c(c1)CCc1ccc(O)c(c1)Oc1ccc(cc1)CCc1cccc(c1)O2 [PTYCHANOL A]
MIC (Candida albicans [7]): 0.25 µg
MIC (Candida albicans [8]): 16 µg/mL

COC(=O)c1c(C)cc(O)c(C)c1O [ATRARIC ACID]
MIC (Candida albicans [9]): 0.6 µg/mL (≈ 3.06 µM)

Oc1ccc2cc1Oc1ccc(cc1)CCc1cccc(O)c1Oc1cccc(c1)CC2
inhibition [10]: 52.2%
inhibition [11]: 100%

C=C1CC[C@@H]2[C@H]1[C@H]1OC(=O)C(=C)[C@@H]1CC[C@@]2(C)OC(C)=O
MIC (Cladosporium cucumerinum): 10 µg/mL

COC(=O)c1c(C)cc(OC(=O)c2c(C)cc(O)c(C=O)c2O)c(C)c1O [ATRANORIN]
MIC (Candida albicans [9]): 2 µg/mL (≈ 5.34 µM)

COc1cc([C@@]2(C)CCCC2(C)C)cc(O)c1C
pIC50 (RAW264.7): 5.39
IC50 [12]: 0.93 µg/mL (≈ 3.74 µM)

Oc1cc2ccc1Oc1cccc(c1)CCc1ccc(cc1)Oc1cc(ccc1O)CC2
MIC (Candida albicans [7]): 0.25 µg
MIC (Candida albicans [8]): 16 µg/mL

NCCCC(N)(C(=O)O)C(F)F (stereo not drawn) [EFLORNITHINE]
EC50 ([5]; GUTat 3.1, time 72 hrs, read-out: ED50 (the source's name)): 2.27 µg/mL

Oc1ccc2c(c1)CCc1ccc(O)c(c1)-c1cc(ccc1O)CCc1ccc-2c(O)c1 [ISOPLAGIOCHIN D]
IC50 (Zymoseptoria tritici): 23.5 µg/mL
IC50 (Pyricularia oryzae [13]): 4 µg/mL

C=C1CC[C@]2(C)[C@@H](O)[C@H]1[C@]1(C)CCC[C@@]12C
IC50 (Phytophthora infestans): 0.1 µg/mL

C=C(C=O)[C@@H]1[C@@H]2[C@H](CC[C@@]3(CO3)[C@@H]1C=O)C2(C)C
IC50 [14]: 6 µg/mL (≈ 24.2 µM)
IC50 [15]: 40 µg/mL (≈ 161 µM)

COc1ccc(CCc2c(Cl)ccc(O)c2Cl)cc1Cl
LC50 [6]: 0.42 ppm

From ChEMBL document CHEMBL5260825, “Chemical Constituents of Bryophytes: Structures and Biological Activity” (J Nat Prod, 2018)
